41 molecules from patent US8871934B2, “Fluorene compound and pharmaceutical use thereof” (Japan Tobacco Inc., priority 2008, dated 2014) can be followed below.

The target in the test is human PDHK2 (hPDHK2) (Homo sapiens (Human), UniProt Q15119). Kind of test: Inhibitory action of PDHK activity in vitro (kinase reaction, residual PDH activity measured). The class given is biochemical.
Where [1] appears, read: PDHK inhibitory activity, class symbol of IC50.
[2] abbreviates: read-out: PDHK inhibitory activity IC50.
Setting [3] is: PDHK inhibitory activity (class symbol).
[4] abbreviates: class symbol of IC50, read-out: PDHK inhibitory activity.
The mark [5] stands for this setting: read-out: PDHK inhibitory activity (class symbol).

Read-outs that look alike come from different tables or passages of the source.

For the molecule `O=C(O)CCCOc1cc(-c2cncnc2)c2c(c1)C(O)(C(F)(F)F)c1ccccc1-2` (stereo not shown) [compound 510], the IC50 is, setting by setting: under setting [1], less than 100 nM; under setting [2], 62 nM.

Take `CC(C)(O)Cn1cc(-c2cc(CO)c3c(c2)C(O)(C(F)(F)F)c2ccccc2-3)cn1` (stereo not shown) [compound 661]: the IC50 was less than 100 nM under setting [3] and 59 nM under setting [2].

For `Cc1cc(-c2cnn(C(C)(C)C(=O)O)c2)c2c(c1)C(O)(C(F)(F)F)c1ccccc1-2` (single isomer, unassigned) [compound 574], the IC50 was less than 100 nM under setting [1] and 52 nM under setting [2].

Consider `NC(=O)COc1cc(Cl)c2c(c1)C(O)(C(F)(F)F)c1ccccc1-2` (stereo not shown) [compound 385], for which the IC50 was 100 to 1000 nM under setting [1] and 234 nM under setting [2].

`OC1(C(F)(F)F)c2ccccc2-c2ccc(Cn3cccn3)cc21` (stereo not shown) [compound 559]: the IC50 by setting is: under setting [4], greater than 1000 nM; under setting [2], greater than 1000 nM.

For the molecule `O=C1CCCN1c1ccc2c(c1)C(O)(C(F)(F)F)c1ccccc1-2` (stereo not shown) [compound 147], the IC50 runs as follows: under setting [1], greater than 1000 nM; under setting [2], 1730 nM.

For the molecule `COC(=O)Cc1ccc2c(c1)C(O)(C(F)(F)F)c1ccccc1-2` (stereo not shown) [compound 353], the IC50 reads like this: under setting [1], greater than 1000 nM; under setting [2], 7400 nM.

Turning to `CN1C(=O)CCC1COc1ccc2c(c1)C(O)(C(F)(F)F)c1ccccc1-2` (stereo not shown) [compound 420], the IC50 by setting is: under setting [1], 100 to 1000 nM; under setting [2], 225 nM.

With `O=C(O)Cc1ccc2c(c1)C(O)(C(F)(F)F)c1ccccc1-2` (stereo not shown) [compound 402], the IC50 by setting is: under setting [1], greater than 1000 nM; under setting [2], greater than 10000 nM.

Take `Cn1cc(-c2cc(C#CCO)c3c(c2)C(O)(C(F)(F)F)c2ccccc2-3)cn1` (stereo not shown) [compound 603]: the IC50 by setting is: under setting [3], 100 to 1000 nM; under setting [2], 228 nM.

With `O=C(O)C1CCN(c2ccc3c(c2)C(O)(C(F)(F)F)c2ccccc2-3)CC1` (stereo not shown) [compound 222], the IC50 was greater than 1000 nM under setting [1] and 5390 nM under setting [2].

For `O=C1CCCN1CCOc1ccc2c(c1)C(O)(C(F)(F)F)c1ccccc1-2` (stereo not shown) [compound 359], the IC50 reads like this: under setting [1], 100 to 1000 nM; under setting [2], 187 nM.

For `Cc1n[nH]c(-c2cccc3c2-c2ccccc2C3(O)C(F)(F)F)n1` (stereo not shown) [compound 313], the IC50 is greater than 1000 nM under setting [1] and greater than 10000 nM under setting [2].

Take `O=C(c1ccc2c(c1)C(O)(C(F)(F)F)c1ccccc1-2)N1CCC(CO)C1` (stereo not shown) [compound 225]: the IC50 under setting [1] lay in the range of 100 to 1000 nM and the IC50 under setting [2] worked out at 619 nM.

Turning to `CC(C)(C)Cn1cc(-c2cc(CO)c3c(c2)C(O)(C(F)(F)F)c2ccccc2-3)cn1` (single isomer, unassigned) [compound 660, 2-[1-(2,2-dimethyl-propyl)-1H-pyrazol-4-yl]-4-hydroxymethyl-9-trifluoromethyl-9H-fluoren-9-ol], the IC50 is, setting by setting: under setting [3], less than 100 nM; under setting [2], 17 nM.

For the molecule `CCn1cc(-c2ccc3c(c2)C(O)(C(F)(F)F)c2cccc(CO)c2-3)cn1` (stereo not shown) [compound 597], the IC50 runs as follows: under setting [4], greater than 1000 nM; under setting [2], greater than 1000 nM.

Consider `O=C(COc1cc(-c2cnn(CCO)c2)c2c(c1)C(O)(C(F)(F)F)c1ccccc1-2)N1CC(O)C1` (stereo not shown) [compound 497], for which the IC50 is, setting by setting: under setting [1], less than 100 nM; under setting [2], 31 nM.

Take `Cn1cc(-c2cc(OCCO)cc3c2-c2ccccc2C3(O)C(F)(F)F)cn1` (stereo not shown) [compound 456]: the IC50 by setting is: under setting [1], less than 100 nM; under setting [2], 45 nM.

Regarding `CNC(=O)CCCCOc1ccc2c(c1)C(O)(C(F)(F)F)c1ccccc1-2` (stereo not shown) [compound 305], the IC50 reads like this: under setting [1], 100 to 1000 nM; under setting [2], 562 nM.

Take `NC(=O)COc1cc(-c2cnn(CCO)c2)c2c(c1)C(O)(C(F)(F)F)c1ccccc1-2` (single isomer, unassigned) [compound 477]: the IC50 is, setting by setting: under setting [1], less than 100 nM; under setting [2], 18 nM.

In the case of `NC(=O)COC1CN(C(=O)c2cc(Cl)c3c(c2)C(O)(C(F)(F)F)c2ccccc2-3)C1` (stereo not shown) [compound 349], the IC50 was 100 to 1000 nM under setting [1] and 126 nM under setting [2].

As to `NC(=O)c1cccc(-c2ccc3c(c2)C(O)(C(F)(F)F)c2ccccc2-3)c1` (stereo not shown) [compound 156], the IC50 under setting [1] fell in the range of 100 to 1000 nM and the IC50 under setting [2] is 464 nM.

Turning to `OC1(C(F)(F)F)c2ccccc2-c2c(F)cccc21` (stereo not shown) [compound 11], the IC50 under setting [1] is greater than 1000 nM and the IC50 under setting [2] stood at 6790 nM.

Consider `OC1(C(F)(F)F)c2ccccc2-c2c(C3CC3)cccc21` (stereo not shown) [compound 268], for which the IC50 is, setting by setting: under setting [1], greater than 1000 nM; under setting [2], greater than 10000 nM.

`CCOC(=O)CCCOc1ccc2c(c1)C(O)(C(F)(F)F)c1ccccc1-2` (stereo not shown) [compound 257]: the IC50 was 100 to 1000 nM under setting [1] and 567 nM under setting [2].

For `OC1(C(F)(F)F)c2ccccc2-c2ccc(Nc3ccccc3)cc21` (stereo not shown) [compound 166], the IC50 is greater than 1000 nM under setting [1] and 5900 nM under setting [2].

As to `OC1(C(F)(F)F)c2ccccc2-c2ccc(OC3CCCCC3)cc21` (stereo not shown) [compound 260], the IC50 under setting [1] was greater than 1000 nM and the IC50 under setting [2] amounted to 2810 nM.

`Cn1cc(-c2cc(C(=O)N3CC(CO)C3)cc3c2-c2ccccc2C3(O)C(F)(F)F)cn1` (stereo not shown) [compound 374]: the IC50 under setting [1] was less than 100 nM and the IC50 under setting [2] turned out to be 49 nM.

As for `NC(=O)Cn1cc(-c2ccc3c(c2)C(O)(C(F)(F)F)c2cccc(CO)c2-3)cn1` (stereo not shown) [compound 609], the IC50 by setting is: under setting [5], greater than 1000 nM; under setting [2], greater than 1000 nM.

As for `O=C(c1cc(-c2cnn(CCO)c2)c2c(c1)C(O)(C(F)(F)F)c1ccccc1-2)N1CCC1` (stereo not shown) [compound 461], the IC50 reads like this: under setting [1], less than 100 nM; under setting [2], 30 nM.

With `CC(=O)c1ccc2c(c1)C(O)(C(F)(F)F)c1ccccc1-2` (stereo not shown) [compound 76], the IC50 under setting [1] is greater than 1000 nM and the IC50 under setting [2] came to 1750 nM.

For the molecule `O=C(O)c1ccccc1-c1ccc2c(c1)C(O)(C(F)(F)F)c1ccccc1-2` (stereo not shown) [compound 180], the IC50 under setting [1] is greater than 1000 nM and the IC50 under setting [2] was greater than 10000 nM.

For the molecule `CNc1ccc2c(c1)C(O)(C(F)(F)F)c1ccccc1-2` (stereo not shown) [compound 95], the IC50 is, setting by setting: under setting [1], greater than 1000 nM; under setting [2], 7830 nM.

Turning to `CN(CCOc1cc(-c2cncnc2)c2c(c1)C(O)(C(F)(F)F)c1ccccc1-2)C(=O)CO` (stereo not shown) [compound 424], the IC50 runs as follows: under setting [1], less than 100 nM; under setting [2], 23 nM.

For `CCOc1ccc2c(c1)-c1ccccc1C2(O)C(F)(F)F` (stereo not shown) [compound 67], the IC50 is, setting by setting: under setting [1], greater than 1000 nM; under setting [2], 4200 nM.

Take `O=C(O)CCCOc1cc(-c2cnn(CCO)c2)c2c(c1)C(O)(C(F)(F)F)c1ccccc1-2` (stereo not shown) [compound 482]: the IC50 is, setting by setting: under setting [1], less than 100 nM; under setting [2], 40 nM.

Turning to `O=C(O)c1ccc(-c2cc(Cl)c3c(c2)C(O)(C(F)(F)F)c2ccccc2-3)cc1` (stereo not shown) [compound 234], the IC50 is less than 100 nM under setting [1] and 58 nM under setting [2].

`OC1(C(F)(F)F)c2ccccc2-c2ccc(OCc3cccs3)cc21` (stereo not shown) [compound 261]: the IC50 runs as follows: under setting [1], greater than 1000 nM; under setting [2], 1400 nM.

On to `O=C(O)Cn1cc(-c2ccc3c(c2)C(O)(C(F)(F)F)c2cccc(CO)c2-3)cn1` (stereo not shown) [compound 608], for which the IC50 reads like this: under setting [5], greater than 1000 nM; under setting [2], greater than 1000 nM.

As to `COC(=O)c1cccc(-c2ccc3c(c2)C(O)(C(F)(F)F)c2ccccc2-3)c1` (stereo not shown) [compound 154], the IC50 is 100 to 1000 nM under setting [1] and 309 nM under setting [2].

Turning to `NCc1cccc2c1-c1ccccc1C2(O)C(F)(F)F` (stereo not shown) [compound 336], the IC50 was greater than 1000 nM under setting [1] and greater than 10000 nM under setting [2].
